This is an account of results in US8399681B2, “Substituted aminothiazolone indazoles as estrogen related receptor-alpha modulators” (Janssen Pharmaceutica NV, priority 2009, dated 2013).

The target in this experiment is T1, ERR1 (also known as ERR-α or ERR-1) (Homo sapiens, UniProt P11474).
T1 sequence (P11474 193-421 limits assumed): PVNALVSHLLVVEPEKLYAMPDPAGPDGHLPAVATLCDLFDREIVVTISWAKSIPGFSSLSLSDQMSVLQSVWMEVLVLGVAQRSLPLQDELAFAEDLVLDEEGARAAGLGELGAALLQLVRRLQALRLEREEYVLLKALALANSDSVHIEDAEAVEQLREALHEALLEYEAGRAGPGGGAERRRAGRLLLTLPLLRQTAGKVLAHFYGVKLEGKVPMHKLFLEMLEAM
The experiment can be described thus: TR-FRET assay (disruption of co-activator peptide binding). Type of experiment: biochemical. As to conditions: 6His-tagged ERR1 LBD, GST-hSRC2 co-activator polypeptide; average of 3 independent experiments. Summed up:
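His6-ERR1 LBD (6 nM) with GST-SRC-2 peptide (6 nM), anti-GST Eu cryptate (30 nM) and anti-His XL665 (7.5 nM) in Tris pH 8/KCl/DTT/BSA buffer, equilibrated 4-18 h at 25 °C. Ex 340, em 615/665 nm; hyperbolic dose-response fit, mean of 3 experiments.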

One may read the EC50 as the midpoint of the concentration-response curve. Low readings indicate greater potency, high ones weaker potency. In turn, `N[C@@H]1C[C@H](CO)N(C2=NC(=O)/C(=C/c3ccc4c(cnn4Cc4ccc(C(F)(F)F)cc4C(F)(F)F)c3)S2)C1` [Example 258, 2-[(2R,4R)-4-Amino-2-(hydroxymethyl)pyrrolidin-1-yl]-5-({1-[2,4-bis(trifluoromethyl)benzyl]-1H-indazol-5-yl}methylidene)-1,3-thiazol-4(5H)-one] registered an EC50 of 30 nM.

The compound `CC(=O)N[C@@H]1C[C@H](CO)N(C2=NC(=O)/C(=C/c3ccc4c(cnn4Cc4ccc(C(F)(F)F)cc4C(F)(F)F)c3)S2)C1` [Example 259, N-{1-[(3R,5R)-5-({1-[2,4-Bis(trifluoromethyl)benzyl]-1H-indazol-5-yl}methylidene)-4-oxo-4,5-dihydro-1,3-thiazol-2-yl]-5-(hydroxymethyl)pyrrolidin-3-yl}acetamide] returned an EC50 of 30 nM. This lies in the double-digit nanomolar range.

For the compound `O=C1N=C(N2C[C@H](NC(=O)C3CC3)C[C@@H]2CO)S/C1=C\c1ccc2c(cnn2Cc2ccc(C(F)(F)F)cc2C(F)(F)F)c1` [Example 260, N-{(3R,5R)-1-[5-({1-[2,4-Bis(trifluoromethyl)benzyl]-1H-indazol-5-yl}methylidene)-4-oxo-4,5-dihydro-1,3-thiazol-2-yl]-5-(hydroxymethyl)pyrrolidin-3-yl}cyclopropanecarboxamide], a half-maximal response (EC50) required 290 nM.

`CC(=O)N[C@@H]1C[C@H](CO)N(C2=NC(=O)/C(=C/c3ccc4c(cnn4Cc4ccc(Cl)cc4C(F)(F)F)c3)S2)C1` [Example 261, N-{(3R,5R)-1-[5-({1-[4-Chloro-2-(trifluoromethyl)benzyl]-1H-indazol-5-yl}methylidene)-4-oxo-4,5-dihydro-1,3-thiazol-2-yl]-5-(hydroxymethyl)pyrrolidin-3-yl}acetamide] gave an EC50 of 20 nM.

Take `CC(C)N[C@@H]1C[C@H](CO)N(C2=NC(=O)/C(=C/c3ccc4c(cnn4Cc4ccc(C(F)(F)F)cc4C(F)(F)F)c3)S2)C1` [Example 262]: a half-maximal effect (EC50) was put at 64 nM.

With `CC(C)N[C@@H]1C[C@H](CO)N(C2=NC(=O)/C(=C/c3ccc4c(cnn4Cc4ccc(Cl)cc4C(F)(F)F)c3)S2)C1` [Example 263], the midpoint of the response, the EC50, lay at 42 nM.

Consider `CC(N[C@H]1CCN(C2=NC(=O)/C(=C/c3ccc4c(cnn4Cc4ccc(C(F)(F)F)cc4C(F)(F)F)c3)S2)C1)C(N)=O` (stereo partly drawn) [Example 264, N-2-{(3S)-1-[5-({1-[2,4-Bis(trifluoromethyl)benzyl]-1H-indazol-5-yl}methylidene)-4-oxo-4,5-dihydro-1,3-thiazol-2-yl]pyrrolidin-3-yl}alaninamide], for which the EC50 amounted to 47 nM. The EC50 values of the last two compounds are within 1.5-fold of each other.

In the case of `CC(N[C@H]1CCN(C2=NC(=O)/C(=C/c3ccc4c(cnn4Cc4ccc(Cl)cc4C(F)(F)F)c3)S2)C1)C(N)=O` (stereo partly drawn) [Example 265, N-2-{(3S)-1-[5-({1-[4-Chloro-2-(trifluoromethyl)benzyl]-1H-indazol-5-yl}methylidene)-4-oxo-4,5-dihydro-1,3-thiazol-2-yl]pyrrolidin-3-yl}alaninamide], the EC50 amounted to 38 nM.

Consider `O=C1N=C(N2CCC[C@H](NCC(F)F)C2)S/C1=C\c1ccc2c(cnn2Cc2ccc(C(F)(F)F)cc2C(F)(F)F)c1` [Example 266, 5-({1-[2,4-Bis(trifluoromethyl)benzyl]-1H-indazol-5-yl}methylidene)-2-{(3S)-3-[(2,2-difluoroethyl)amino]piperidin-1-yl}-1,3-thiazol-4(5H)-one], for which the EC50 worked out at 24 nM.

For `O=C1N=C(N2CCCC(NCCO)C2)S/C1=C\c1ccc2c(cnn2Cc2ccc(C(F)(F)F)cc2C(F)(F)F)c1` (stereo not shown) [Example 267, 5-({1-[2,4-Bis(trifluoromethyl)benzyl]-1H-indazol-5-yl}methylidene)-2-{3-[(2-hydroxyethyl)amino]piperidin-1-yl}-1,3-thiazol-4(5H)-one], a half-maximal response (EC50) required 43 nM.

Take `O=C1N=C(N2CCC(O)(C(=O)O)CC2)S/C1=C\c1ccc2c(cnn2Cc2ccc(Cl)cc2C(F)(F)F)c1` [Example 268, 1-[5-({1-[4-Chloro-2-(trifluoromethyl)benzyl]-1H-indazol-5-yl}methylidene)-4-oxo-4,5-dihydro-1,3-thiazol-2-yl]-4-hydroxypiperidine-4-carboxylic acid]: the EC50 came out at 15 nM.

`O=C1N=C(N2CCC(O)(C(=O)O)CC2)S/C1=C\c1ccc2c(cnn2Cc2ccc(C(F)(F)F)cc2C(F)(F)F)c1` [Example 269, 1-[5-({1-[2,4-Bis(trifluoromethyl)benzyl]-1H-indazol-5-yl}methylidene)-4-oxo-4,5-dihydro-1,3-thiazol-2-yl]-4-hydroxypiperidine-4-carboxylic acid] came in with a 50% effective concentration (EC50) of 15 nM.

In the case of `CNC1CN(C2=NC(=O)/C(=C/c3ccc4c(cnn4Cc4ccc(Cl)cc4C(F)(F)F)c3)S2)C1` [Example 270, 5-({1-[4-Chloro-2-(trifluoromethyl)benzyl]-1H-indazol-5-yl}methylidene)-2-[3-(methylamino)azetidin-1-yl]-1,3-thiazol-4(5H)-one], the 50% effective concentration (EC50) amounted to 8 nM.

`CONC(=O)C1CN(C2=NC(=O)/C(=C/c3ccc4c(cnn4Cc4ccc(Cl)cc4C(F)(F)F)c3)S2)CCN1` (stereo not shown) [Example 271, 4-[5-({1-[4-Chloro-2-(trifluoromethyl)benzyl]-1H-indazol-5-yl}methylidene)-4-oxo-4,5-dihydro-1,3-thiazol-2-yl]-N-methoxypiperazine-2-carboxamide] gave an EC50 of 9 nM.

On to `CONC(=O)C1CN(C2=NC(=O)/C(=C/c3ccc4c(cnn4Cc4ccc(C(F)(F)F)cc4C(F)(F)F)c3)S2)CCN1` (stereo not shown) [Example 272, 4-[5-({1-[2,4-Bis(trifluoromethyl)benzyl]-1H-indazol-5-yl}methylidene)-4-oxo-4,5-dihydro-1,3-thiazol-2-yl]-N-methoxypiperazine-2-carboxamide], for which a half-maximal response (EC50) required 35 nM.

Compound `NC(=O)C1CN(C2=NC(=O)/C(=C/c3ccc4c(cnn4Cc4ccc(Cl)cc4C(F)(F)F)c3)S2)CCN1` (stereo not shown) [Example 273, 4-[5-({1-[4-Chloro-2-(trifluoromethyl)benzyl]-1H-indazol-5-yl}methylidene)-4-oxo-4,5-dihydro-1,3-thiazol-2-yl]piperazine-2-carboxamide] came in with an EC50 of 6 nM.

For the compound `NC(=O)C1CN(C2=NC(=O)/C(=C/c3ccc4c(cnn4Cc4ccc(C(F)(F)F)cc4C(F)(F)F)c3)S2)CCN1` (stereo not shown) [Example 274, 4-[5-({1-[2,4-Bis(trifluoromethyl)benzyl]-1H-indazol-5-yl}methylidene)-4-oxo-4,5-dihydro-1,3-thiazol-2-yl]piperazine-2-carboxamide], the EC50 came to 8 nM.

In the case of `C=C(C)c1ccc(Cn2ncc3cc(/C=C4\SC(N5CCO[C@@H](CO)C5)=NC4=O)ccc32)c(C(F)(F)F)c1` [Example 275, 2-[(2R)-2-(Hydroxymethyl)morpholin-4-yl]-5-({1-[4-(1-methylethenyl)-2-(trifluoromethyl)benzyl]-1H-indazol-5-yl}methylidene)-1,3-thiazol-4(5H)-one], it took 11 nM to reach a half-maximal effect (EC50). The EC50 values of the last two compounds are within 1.5-fold of each other.

`Cc1nn(Cc2ccc(Cl)cc2C(F)(F)F)c2ccc(/C=C3\SC(N4CCC(C(=O)O)CC4)=NC3=O)cc12` [Example 276, 1-[5-({1-[4-Chloro-2-(trifluoromethyl)benzyl]-3-methyl-1H-indazol-5-yl}methylidene)-4-oxo-4,5-dihydro-1,3-thiazol-2-yl]piperidine-4-carboxylic acid] had an EC50 of 24 nM.

In turn, `Cc1nn(Cc2ccc(Cl)cc2C(F)(F)F)c2ccc(/C=C3\SC(N4CCN[C@H](CO)C4)=NC3=O)cc12` [Example 277, 5-({1-[4-Chloro-2-(trifluoromethyl)benzyl]-3-methyl-1H-indazol-5-yl}methylidene)-2-[(3S)-3-(hydroxymethyl)piperazin-1-yl]-1,3-thiazol-4(5H)-one] yielded an EC50 of 9 nM. This EC50 lies about 2.7-fold lower than the previous one.

For the compound `Cc1nn(Cc2ccc(Cl)cc2C(F)(F)F)c2ccc(/C=C3\SC(N4CCN(C)C(C)(C)C4)=NC3=O)cc12` [Example 278, 5-({1-[4-Chloro-2-(trifluoromethyl)benzyl]-3-methyl-1H-indazol-5-yl}methylidene)-2-(3,3,4-trimethylpiperazin-1-yl)-1,3-thiazol-4(5H)-one], the concentration giving a half-maximal response (EC50) was found to be 17 nM.

`CC(C)(C)OC(=O)N1CCN(C2=NC(=O)/C(=C/c3ccc4c(c3)c(I)nn4Cc3ccc(C(F)(F)F)cc3C(F)(F)F)S2)C[C@@H]1CO` [Example 279, tert-Butyl (2R)-4-[5-({1-[2,4-bis(trifluoromethyl)benzyl]-3-iodo-1H-indazol-5-yl}methylidene)-4-oxo-4,5-dihydro-1,3-thiazol-2-yl]-2-(hydroxymethyl)piperazine-1-carboxylate] displayed an EC50 of 11 nM.

For the compound `CC(=O)OC[C@@H]1CN(C2=NC(=O)/C(=C/c3ccc4c(cnn4Cc4ccc(C(F)(F)F)cc4C(F)(F)F)c3)S2)CCO1` [Example 280, {(2S)-4-[5-({1-[2,4-Bis(trifluoromethyl)benzyl]-1H-indazol-5-yl}methylidene)-4-oxo-4,5-dihydro-1,3-thiazol-2-yl]morpholin-2-yl}methyl acetate], a half-maximal effect (EC50) was put at 3 nM.

`O=C1N=C(N2CCO[C@H](CO)C2)S/C1=C\c1ccc2c(cnn2Cc2ncccc2C(F)(F)F)c1` [Example 281, 2-[(2S)-2-(Hydroxymethyl)morpholin-4-yl]-5-[(1-{[3-(trifluoromethyl)pyridin-2-yl]methyl}-1H-indazol-5-yl)methylidene]-1,3-thiazol-4(5H)-one] registered an EC50 of 590 nM.

For the compound `COC(=O)CNC(=O)[C@@H]1CN(C2=NC(=O)/C(=C/c3ccc4c(cnn4Cc4ccc(C(F)(F)F)cc4C(F)(F)F)c3)S2)CCO1` [Example 282, Methyl N-({(2S)-4-[5-({1-[2,4-bis(trifluoromethyl)benzyl]-1H-indazol-5-yl}methylidene)-4-oxo-4,5-dihydro-1,3-thiazol-2-yl]morpholin-2-yl}carbonyl)glycinate], the EC50 was greater than 4000 nM.
